Ends that are not written are not given here.
Legend:
Type in all cases: physicochemical
[1] = solubility tests in DMSO, normal saline and 0.2 M NaCl by visual examination; details: for Solubility (dissolved Yes/No), 0.2M Sodium (NaCl): 0.2 M NaCl; for Solubility (dissolved Yes/No), 0.154M Sodium (NaCl): normal saline, 0.154 M NaCl
Procedure: Additional testing was completed to attempt to overcome the above-identified solubility issues. Results of the solubility tests performed for each labyrinthin-derived peptide candidate (SEQ ID NOS:29-32) are shown in Table 5. In short, all peptides were again dissolved in DMSO, confirming that the peptides had the capacity to dissolve in solution. Peptide solubility was then tested in normal saline (0.154 M sodium (NaCl)) and 0.2 M sodium (NaCl). Normal saline is generally an option as a solvent/diluent as use for such purpose is accepted by the […]. […] Additional solutions were tested to determine an alternative diluent to solubilize the candidate peptides, as determined by visual examination.

[2] = solubility in phosphate buffer with/without 0.9% NaCl, pH serially lowered with acetic acid, concentration remaining in solution
Procedure: In further solubility testing, two tubes of 1.1 mg peptide for each of the four candidate peptides target was dissolved into 1 mL phosphate buffer (pH 10) (with and without 0.9% NaCl). The peptide solutions were subsequently stored at 4° C. for several hours to dissolve the peptides thoroughly. Following centrifugation, the peptide concentration that remained in solution was measured. The solubility of all four peptide candidates under all tested condition in Table 6 as above 0.3 mg/mL, and for each peptide candidate the variability of solubility across the pH ranges tested was minimal.

[3] = solubility by visual examination in ultrapure water, PBS and DMSO; details: for Solubility, PBS (pH 7.4): 0.1 M PBS pH 7.4, visual examination
Procedure: The solubility of each labyrinthin-derived peptide candidate was assessed by visual examination in ultrapure water, 0.1 M PBS (PBS; pH 7.4), and dimethyl sulfoxide (DMSO; analytical grade). As reported in Table 4, a solubility of less than 0.1 mg/mL of solvent was defined as “Undissolved” and solubility of greater than or 0.1 mg/mL was defined as “Dissolved.” The concentration range of measured solubility is provided under the “Dissolved” classification where available (Table 4).

[4] = pH 4, PBS with 0.9% NaCl, pH 4, read-out: Solubility pH 4
[5] = pH 4, PBS without NaCl, pH 4, read-out: Solubility pH 4
[6] = pH 5, PBS with 0.9% NaCl, pH 5, read-out: Solubility pH 5
[7] = pH 5, PBS without NaCl, pH 5, read-out: Solubility pH 5
[8] = pH 5.5, PBS with 0.9% NaCl, pH 5.5, read-out: Solubility pH 5.5
[9] = pH 5.5, PBS without NaCl, pH 5.5, read-out: Solubility pH 5.5
[10] = pH 6, PBS with 0.9% NaCl, pH 6, read-out: Solubility pH 6
[11] = pH 6, PBS without NaCl, pH 6, read-out: Solubility pH 6
[12] = pH 6.5, PBS with 0.9% NaCl, pH 6.5, read-out: Solubility pH 6.5
[13] = pH 6.5, PBS without NaCl, pH 6.5, read-out: Solubility pH 6.5
[14] = pH 7, PBS with 0.9% NaCl, pH 7, read-out: Solubility pH 7
[15] = pH 7, PBS without NaCl, pH 7, read-out: Solubility pH 7
[16] = pH 7.5, PBS with 0.9% NaCl, pH 7.5, read-out: Solubility pH 7.5
[17] = pH 7.5, PBS without NaCl, pH 7.5, read-out: Solubility pH 7.5
[18] = pH 8, PBS with 0.9% NaCl, pH 8, read-out: Solubility pH 8
[19] = pH 8, PBS without NaCl, pH 8, read-out: Solubility pH 8
[20] = pH 8.5, PBS with 0.9% NaCl, pH 8.5, read-out: Solubility pH 8.5
[21] = pH 8.5, PBS without NaCl, pH 8.5, read-out: Solubility pH 8.5
[22] = pH 9, PBS with 0.9% NaCl, pH 9, read-out: Solubility pH 9
[23] = pH 9, PBS without NaCl, pH 9, read-out: Solubility pH 9
[24] = pH 10, PBS with 0.9% NaCl, pH 10, read-out: Solubility pH 10
[25] = pH 10, PBS without NaCl, pH 10, read-out: Solubility pH 10
[26] = DMSO analytical grade, visual examination, read-out: Solubility, DMSO
[27] = DMSO, read-out: concentration range of measured solubility, DMSO
[28] = pH 7.4, 0.1 M PBS pH 7.4, visual examination, read-out: Solubility, PBS (pH 7.4)
[29] = pH 7.4, 0.1 M PBS pH 7.4, read-out: concentration range of measured solubility, PBS (pH 7.4)
[30] = ultrapure water, visual examination
[31] = ultrapure water, visual examination, read-out: Solubility, Ultrapure water

Solubility (dissolved Yes/No), 0.2M Sodium (NaCl) [1] | Solubility (dissolved Yes/No), DMSO [1] | Solubility (dissolved Yes/No), 0.154M Sodium (NaCl) [1] | solubility [2, 4] | solubility [2, 5] | solubility [2, 6] | solubility [2, 7] | solubility [2, 8] | solubility [2, 9] | solubility [2, 10] | solubility [2, 11] | solubility [2, 12] | solubility [2, 13] | solubility [2, 14] | solubility [2, 15] | solubility [2, 16] | solubility [2, 17] | solubility [2, 18] | solubility [2, 19] | solubility [2, 20] | Sequence | other results
Yes | Yes | Yes | 496 µg/mL | 647 µg/mL | 510 µg/mL | 669 µg/mL | 510 µg/mL | 667 µg/mL | 529 µg/mL | 674 µg/mL | 498 µg/mL | 673 µg/mL | 539 µg/mL | 710 µg/mL | 555 µg/mL | 712 µg/mL | 542 µg/mL | 720 µg/mL | 540 µg/mL | DMEEMMSEQENPDSSEPVVEDE [SEQ ID NO: 30] | solubility [2, 21]: 730 µg/mL; solubility [2, 22]: 548 µg/mL; solubility [2, 23]: 738 µg/mL; solubility [2, 24]: 552 µg/mL; solubility [2, 25]: 726 µg/mL; solubility [3, 26]: > 100 µg/mL; solubility [3, 27]: ≤ 10000 µg/mL; solubility [3, 28]: > 100 µg/mL; solubility [3, 29]: ≤ 10000 µg/mL; Solubility, Ultrapure water [3, 30]: undissolved; solubility [3, 31]: < 100 µg/mL
Yes | Yes | No | 382 µg/mL | 387 µg/mL | 401 µg/mL | 397 µg/mL | 412 µg/mL | 337 µg/mL | 411 µg/mL | 404 µg/mL | 406 µg/mL | 407 µg/mL | 412 µg/mL | 402 µg/mL | 412 µg/mL | 415 µg/mL | 415 µg/mL | 421 µg/mL | 433 µg/mL | DSQVIVEEVSIFPVEEQQEVPPD [SEQ ID NO: 32] | Solubility (dissolved Yes/No), 0.154M Sodium (NaCl) ([1]; listed as SEQ ID NO:32): did not dissolve; solubility [2, 21]: 424 µg/mL; solubility [2, 22]: 426 µg/mL; solubility [2, 23]: 445 µg/mL; solubility [2, 24]: 413 µg/mL; solubility [2, 25]: 419 µg/mL; Solubility, PBS (pH 7.4) [3]: did not improve solubility; solubility [3, 26]: > 100 µg/mL; solubility [3, 27]: ≤ 10000 µg/mL; solubility [3, 28]: < 100 µg/mL; Solubility, Ultrapure water [3, 30]: undissolved; solubility [3, 31]: < 100 µg/mL
Yes | Yes | Yes | 687 µg/mL | 731 µg/mL | 694 µg/mL | 738 µg/mL | 695 µg/mL | 738 µg/mL | 695 µg/mL | 742 µg/mL | 706 µg/mL | 753 µg/mL | 701 µg/mL | 748 µg/mL | 703 µg/mL | 757 µg/mL | 707 µg/mL | 756 µg/mL | 702 µg/mL | GEDLQQEDGPTGEPQQEDDEFL [SEQ ID NO: 29] | solubility [2, 21]: 762 µg/mL; solubility [2, 22]: 707 µg/mL; solubility [2, 23]: 757 µg/mL; solubility [2, 24]: 708 µg/mL; solubility [2, 25]: 765 µg/mL; solubility [3, 26]: > 100 µg/mL; solubility [3, 28]: > 100 µg/mL; solubility [3, 29]: ≤ 10000 µg/mL; solubility [3, 31]: > 100 µg/mL; solubility ([3]; ultrapure water, read-out: concentration range of measured solubility, Ultrapure water): ≤ 10000 µg/mL
Yes | Yes | No | 806 µg/mL | 777 µg/mL | 813 µg/mL | 802 µg/mL | 826 µg/mL | 819 µg/mL | 833 µg/mL | 773 µg/mL | 831 µg/mL | 769 µg/mL | 838 µg/mL | 825 µg/mL | 852 µg/mL | 812 µg/mL | 861 µg/mL | 847 µg/mL | 848 µg/mL | NEGIEITEVTAPPEDNPVEDSQ [SEQ ID NO: 31] | Solubility (dissolved Yes/No), 0.154M Sodium (NaCl) ([1]; listed as SEQ ID NO:31): did not dissolve; solubility [2, 21]: 854 µg/mL; solubility [2, 22]: 866 µg/mL; solubility [2, 23]: 857 µg/mL; solubility [2, 24]: 881 µg/mL; solubility [2, 25]: 849 µg/mL; Solubility, PBS (pH 7.4) [3]: did not improve solubility; solubility [3, 26]: > 100 µg/mL; solubility [3, 27]: ≤ 5000 µg/mL; solubility [3, 28]: < 100 µg/mL; Solubility, Ultrapure water [3, 30]: undissolved; solubility [3, 31]: < 100 µg/mL

— patent publication US12655184B2, “Labyrinthin-based peptides for cancer immunotherapies and uses thereof” (LABYRX IMMUNOLOGIC THERAPEUTICS (USA) LIMITED, priority 2018, dated 2026)
